Reference: patent US6534448B1, “Composition and method for acidizing wells and equipment without damaging precipitation” (Halliburton Energy Services, Inc., priority 2000, dated 2003)

Tests used:
[1] = in vivo
[2] = tested on: marine copepod Arcatia tonsa; assay: Static 48 hour toxicity test on marine copepod (draft ISO 14669:1999(E)); type: in vivo; conditions: test range 200.0 to 2000.0 mg l-1
Experimental: Test concentrations of sodium molybdate crystalline were prepared over the range 200.0 mg 1^−1 to 2000.0 mg 1^−1.

[3] = Amounts of electron transfer agents needed to reduce 2500 ppm ferric ion in less than five minutes (Example III); conditions: 15 lbs./Mgal Na2MoO4 in 15% HCl, room temperature
Experimental: The above concentrations were arrived at from room temperature experiments.
Next, tests were conducted to determine the optimum amounts of the electron transfer agent(s) that should be employed in the inventive acidizing composition. Each test fluid included 1% by volume thioglycolic acid, based on the total volume of the acid solution and was contaminated with 2500 ppm ferric ion (by adding a sufficient amount of ferric chloride to the fluid).
These fluids also included the primary electron transfer agent, either sodium molybdate or ammonium molybdate. The amount the molybdate utilized was varied.
These fluids also included the primary electron transfer agent, either sodium molybdate or ammonium molybdate, and the supplemental electron transfer agent (potassium iodide). The amounts of the molybdate and potassium iodide utilized were varied.
The tests were carried out at room temperature. The test fluids were contaminated with 2500 ppm of ferric ion by adding a corresponding amount of iron chloride (FeCl3.H2O) thereto.
It was determined that a complete reduction had taken place when the test fluids changed back to the red-brown color.
It was determined that a complete reduction had taken place when the test fluids changed back to the emerald green color (verified by UV-VIS experiments).

| Compound | concentration found to be toxic [1] [ng/mL] | 24 hour EC50 (concentration which immobilized 50% of the copepods) ([2]; 24 hours) [µg/mL] | 48 hour EC50 (concentration which immobilized 50% of the copepods) ([2]; 48 hours) [µg/mL] | time required for reduction of 2500 ppm Fe(III) to Fe(II) [3] [min] |
| --- | --- | --- | --- | --- |
| [Cl][Cu] [cuprous chloride] | ≥ 10 |  |  |  |
| [Na+].[Na+].[O]=[Mo](=[O])([O-])[O-] [sodium molybdate crystalline, sodium molybdate] |  | > 2000.0 | > 2000.0 | 2 to 3 |
